In patent publication US9315464B1 (priority 2013, dated 2016):

What was measured:
[1] = test system: influenza A/Puerto Rico/8/34 virus; assay: Hemagglutination assay of influenza A replication in MDCK cells; type: cell-based; details: 75 uM compound, influenza A/Puerto Rico/8/34 dilution series, FIG. 5A
[2] = test system: non-specific promoter (BAX promoter-driven luciferase) in HEK-293T cells; assay: irrelevant promoter-containing cell-based reporter assay (luciferase driven by the BAX promoter, control); details: BAX promoter luciferase in HEK-293T cells, indicator of non-specific toxicity
[3] = test system: influenza A reporter assay system (viral UTR promoter / viral RNA-dependent RNA polymerase); type: cell-based, Influenza A virus (mouse B16-F10 melanoma cells)

`O=C(Nc1ccc(S(=O)(=O)Nc2nccs2)cc1)c1cc(-c2ccccc2)nc2ccccc12` [A0259, 2-phenyl-N-{4-[(1,3-thiazol-2-yl)sulfamoyl]phenyl}quinoline-4-carboxamide] was tested, and the “inhibition of influenza A viral replication in recipient cells (hemagglutination, settling cell buttons)” value [1] was “viral dilutions below a thousand-fold from stock were inhibited from successfully replicating”, the “impact on a non-specific promoter” value [2] was “smallest impact” and the “inhibition of the influenza reporter system” value [3] was “most dramatic inhibition”.
